Measured values from the NIST ThermoML archive (doi:10.1016/j.fluid.2004.11.022).

Experiments:
[1] = osmotic coefficient (dimensionless); mn = molality of the nth substance listed, in mol/kg; settings: 298.15 K, Liquid, isopiestic method
[2] = mn = molality of the nth substance listed, in mol/kg; settings: 298.15 K, 101.3 kPa, Liquid

[Cl-].[Cl-].[Zn+2] [zinc chloride] + CCO
Settings	mass density [kg/m3]	osmotic coefficient
[1], m1 = 0.219	–	0.359
[1], m1 = 0.4046	–	0.332
[1], m1 = 0.4882	–	0.352
[1], m1 = 0.5854	–	0.358
[1], m1 = 0.7111	–	0.36
[1], m1 = 0.7875	–	0.379
[1], m1 = 0.8946	–	0.383
[1], m1 = 1.057	–	0.405
[1], m1 = 1.087	–	0.403
[1], m1 = 1.205	–	0.416
[1], m1 = 1.227	–	0.422
[1], m1 = 1.353	–	0.441
[1], m1 = 1.446	–	0.443
[1], m1 = 1.567	–	0.458
[1], m1 = 1.666	–	0.472
[1], m1 = 1.765	–	0.482
[1], m1 = 1.889	–	0.494
[1], m1 = 1.973	–	0.506
[1], m1 = 2.115	–	0.519
[1], m1 = 2.233	–	0.542
[1], m1 = 2.408	–	0.56
[1], m1 = 2.455	–	0.571
[1], m1 = 2.61	–	0.594
[1], m1 = 2.712	–	0.616
[2], m1 = 0.0018	785.28	–
[2], m1 = 0.0035	785.46	–
[2], m1 = 0.0053	785.67	–
[2], m1 = 0.0087	786.03	–
[2], m1 = 0.0106	786.24	–
[2], m1 = 0.0127	786.47	–
[2], m1 = 0.0167	786.9	–
[2], m1 = 0.0185	787.09	–
[2], m1 = 0.0227	787.56	–
[2], m1 = 0.033	788.63	–
[2], m1 = 0.0394	789.3	–
[2], m1 = 0.0471	790.1	–
[2], m1 = 0.051	790.5	–
[2], m1 = 0.0551	790.94	–
[2], m1 = 0.0624	791.69	–
[2], m1 = 0.0691	792.36	–
[2], m1 = 0.0734	792.8	–
[2], m1 = 0.0781	793.28	–
[2], m1 = 0.0825	793.72	–
[2], m1 = 0.0921	794.68	–
[2], m1 = 0.1035	795.81	–
[2], m1 = 0.1713	802.4	–
[2], m1 = 0.2776	812.39	–
[2], m1 = 0.4056	824.04	–
[2], m1 = 0.5788	839.34	–
[2], m1 = 0.6875	848.7	–
[2], m1 = 0.8432	861.8	–
[2], m1 = 1.086	881.52	–
[2], m1 = 1.132	885.11	–
[2], m1 = 1.312	899.05	–
[2], m1 = 1.346	901.59	–
[2], m1 = 1.542	916.09	–
[2], m1 = 1.689	926.54	–
[2], m1 = 1.883	940	–
[2], m1 = 2.041	950.61	–
[2], m1 = 2.204	961.4	–
[2], m1 = 2.402	974.29	–
[2], m1 = 2.541	983.29	–
[2], m1 = 2.776	998.74	–
